Source: the NIST ThermoML archive (doi:10.1021/je500381c)

Experiment: xn = mol fraction of the nth substance listed
Conditions: for mass density / viscosity: 100 kPa, Liquid; for mass density: Vibrating tube method; for surface tension liquid-gas: Drop volume

CC12CC3CC(C1)CC(C)(C3)C2 [1,3-dimethyladamantane] + CCCCCCCO
Conditions	mass density [kg/m3]	surface tension liquid-gas [mN/m]	viscosity [mPa·s]
293.15 K, x2 = 0	901.58	–	3.764
293.15 K, x2 = 0.1001	895.5	–	3.692
293.15 K, x2 = 0.199	889.11	–	3.788
293.15 K, x2 = 0.2998	882.35	–	3.972
293.15 K, x2 = 0.3997	875.32	–	4.181
293.15 K, x2 = 0.4997	867.82	–	4.522
293.15 K, x2 = 0.6002	859.93	–	4.92
293.15 K, x2 = 0.7	851.41	–	5.419
293.15 K, x2 = 0.7996	842.45	–	5.924
293.15 K, x2 = 0.8999	832.71	–	6.447
298.15 K, x2 = 0	898.04	27.88	3.345
298.15 K, x2 = 0.1001	891.87	27.82	3.271
298.15 K, x2 = 0.199	885.48	–	3.342
298.15 K, x2 = 0.1997	–	27.69	–
298.15 K, x2 = 0.2998	878.72	27.48	3.475
298.15 K, x2 = 0.3997	871.68	27.35	3.686
298.15 K, x2 = 0.4997	864.19	27.15	3.909
298.15 K, x2 = 0.6002	856.3	27.02	4.218
298.15 K, x2 = 0.7	847.82	26.79	4.611
298.15 K, x2 = 0.7996	838.88	26.56	5.028
298.15 K, x2 = 0.8999	829.21	26.36	5.454
303.15 K, x2 = 0	894.48	–	3.004
303.15 K, x2 = 0.1001	888.23	–	2.913
303.15 K, x2 = 0.199	881.84	–	2.963
303.15 K, x2 = 0.2998	875.06	–	3.066
303.15 K, x2 = 0.3997	868.01	–	3.238
303.15 K, x2 = 0.4997	860.52	–	3.414
303.15 K, x2 = 0.6002	852.65	–	3.657
303.15 K, x2 = 0.7	844.21	–	3.967
303.15 K, x2 = 0.7996	835.28	–	4.304
303.15 K, x2 = 0.8999	825.66	–	4.649
308.15 K, x2 = 0	890.92	–	2.711
308.15 K, x2 = 0.1001	884.58	–	2.609
308.15 K, x2 = 0.199	878.15	–	2.642
308.15 K, x2 = 0.2998	871.37	–	2.721
308.15 K, x2 = 0.3997	864.33	–	2.862
308.15 K, x2 = 0.4997	856.84	–	3
308.15 K, x2 = 0.6002	848.97	–	3.194
308.15 K, x2 = 0.7	840.56	–	3.439
308.15 K, x2 = 0.7996	831.66	–	3.711
308.15 K, x2 = 0.8999	822.07	–	3.992
313.15 K, x2 = 0	887.35	–	2.458
313.15 K, x2 = 0.1001	880.92	–	2.347
313.15 K, x2 = 0.199	874.46	–	2.366
313.15 K, x2 = 0.2998	867.67	–	2.427
313.15 K, x2 = 0.3997	860.62	–	2.542
313.15 K, x2 = 0.4997	853.13	–	2.653
313.15 K, x2 = 0.6002	845.27	–	2.807
313.15 K, x2 = 0.7	836.88	–	3.001
313.15 K, x2 = 0.7996	828.01	–	3.22
313.15 K, x2 = 0.8999	818.46	–	3.45
318.15 K, x2 = 0	883.77	–	2.237
318.15 K, x2 = 0.1001	877.24	–	2.121
318.15 K, x2 = 0.199	870.75	–	2.129
318.15 K, x2 = 0.2998	863.95	–	2.175
318.15 K, x2 = 0.3997	856.89	–	2.269
318.15 K, x2 = 0.4997	849.4	–	2.359
318.15 K, x2 = 0.6002	841.54	–	2.481
318.15 K, x2 = 0.7	833.18	–	2.636
318.15 K, x2 = 0.7996	824.33	–	2.813
318.15 K, x2 = 0.8999	814.8	–	3.002
323.15 K, x2 = 0	880.19	–	2.045
323.15 K, x2 = 0.1001	873.55	–	1.925
323.15 K, x2 = 0.199	867.02	–	1.925
323.15 K, x2 = 0.2998	860.2	–	1.958
323.15 K, x2 = 0.3997	853.14	–	2.035
323.15 K, x2 = 0.4997	845.65	–	2.107
323.15 K, x2 = 0.6002	837.79	–	2.205
323.15 K, x2 = 0.7	829.46	–	2.329
323.15 K, x2 = 0.7996	820.62	–	2.472
323.15 K, x2 = 0.8999	811.12	–	2.626
328.15 K, x2 = 0	876.6	–	1.876
328.15 K, x2 = 0.1001	869.84	–	1.754
328.15 K, x2 = 0.199	863.27	–	1.745
328.15 K, x2 = 0.2998	856.43	–	1.769
328.15 K, x2 = 0.3997	849.36	–	1.833
328.15 K, x2 = 0.4997	841.86	–	1.891
328.15 K, x2 = 0.6002	834.01	–	1.97
328.15 K, x2 = 0.7	825.68	–	2.069
328.15 K, x2 = 0.7996	816.87	–	2.184
328.15 K, x2 = 0.8999	807.4	–	2.311
333.15 K, x2 = 0	873.01	–	1.728
333.15 K, x2 = 0.1001	866.11	–	1.603
333.15 K, x2 = 0.199	859.5	–	1.589
333.15 K, x2 = 0.2998	852.63	–	1.605
333.15 K, x2 = 0.3997	845.56	–	1.658
333.15 K, x2 = 0.4997	838.05	–	1.704
333.15 K, x2 = 0.6002	830.19	–	1.767
333.15 K, x2 = 0.7	821.88	–	1.847
333.15 K, x2 = 0.7996	813.08	–	1.938
333.15 K, x2 = 0.8999	803.64	–	2.044
